Reference: patent US7049321B2, “Methods and pharmaceutical compositions for treatment of central and peripheral nervous system disorders and compounds useful therefor” (Israel Institute for Biological Research, priority 2002, dated 2006)

Tests used:
[1] = tested on: cortical and hippocampal cell culture; assay: Protection against NMDA-induced cell death; assay type: cell-based, rat; details: for Neuroprotective potency against 200 μM of NMDA vs MK801: 100 μM agonist
[2] = tested on: rabbits with nbm lesions; assay: CSF and cortical Aβ in hypocholinergic (nbm-lesioned) rabbits; assay type: in vivo, New Zealand White rabbits; details: 4 weeks
Excerpt: It is known that experimentally-induced cortical cholinergic denervation results in biochemical elevations of cortical Aβ concentrations and in histologic Aβ deposition (Beach et al, Neurosci Lett 283: 9–12, 2000), and that administration of muscarinic Ml-selective agents to normal animals decreases CSF AP concentrations {Beach et al Brain Res. 905: 220–223, 2001}.
Twenty-eight female New Zealand White rabbits, about 2.5 kg each (young adults) were used. Twenty-one received lesions of the cholinergic nucleus basalis magnocellularis (nbm). The lesion was accomplished with unilateral i.c.v. injections of an immunotoxin consisting of the ribosomal toxin saporin conjugated to the monoclonal antibody ME20.4, which is directed against the low-affinity neurotrophin receptor, p75. The ME20.4 antibody is made against monkey p75 and also recognizes rabbit p75. The dose of immunotoxin was 32.4 μg in 12 μl; this was delivered to the right lateral ventricle 2 mm lateral to the bregma. Seven animals received i.c.v. injections of sterile normal saline (sham lesion). Animals which received the immunotoxin were divided into 3 groups of 7. […] Another group received physostigmine hemisalicylate in normal saline by s.c. osmotic pump at a daily dose of 3 mg/kg. The third group received twice-daily sterile saline s.c. injections. The animals which received a sham lesion were implanted with s.c. osmotic pumps filled with sterile normal saline. Animals were euthanized 4 weeks after surgery. […] Cerebrospinal fluid was taken from the cisterna magna of all animals at the time of sacrifice; the brain was removed and sliced coronally into 0.5 cm slices. […] The other slices were frozen on sheets of dry ice (the other slices are the non-fixed 0.5 cm coronal slices of cerebrum, brainstem and cerebellum).

[3] = target: T1, M1 receptors (Rattus norvegicus, UniProt P08482); assay: [3H]PZ competition binding to rat cortical membranes; details: for Ki: rat cortex
T1 construct: from tissue; host or cells: rat cortical membranes
T1 sequence (P08482 1-460): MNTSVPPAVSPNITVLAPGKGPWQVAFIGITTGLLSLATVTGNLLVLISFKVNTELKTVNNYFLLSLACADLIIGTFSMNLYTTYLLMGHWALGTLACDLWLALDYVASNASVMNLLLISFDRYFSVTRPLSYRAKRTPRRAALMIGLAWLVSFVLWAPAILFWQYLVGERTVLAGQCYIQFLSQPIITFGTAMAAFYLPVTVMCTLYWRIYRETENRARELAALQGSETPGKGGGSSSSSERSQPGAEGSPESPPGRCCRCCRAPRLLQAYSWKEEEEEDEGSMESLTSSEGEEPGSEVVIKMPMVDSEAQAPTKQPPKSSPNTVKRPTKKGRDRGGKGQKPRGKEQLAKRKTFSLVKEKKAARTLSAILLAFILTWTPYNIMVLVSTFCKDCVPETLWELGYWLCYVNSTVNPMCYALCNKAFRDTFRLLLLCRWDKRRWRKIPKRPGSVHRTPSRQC
Excerpt: Pirenzepine (PZ), a muscarinic antagonist, binds preferentially to M1 receptors while OXO-M binds to all mAChR subtypes non-selectively; the ratio between the Ki values for PZ versus that of OXO-M may be indicative of the selectivity of the tested compound. The smaller the ratio, the more M1 selective is the tested compound. […] The OXO-M/PZ ratio is ˜0.36 showing a moderately high selectivity for the M1 receptor.

[4] = CNS safety: general observation and Irwin test in rats; assay type: in vivo, rat
Description: AF292 was evaluated in rodents for possible effects on general behavior and other CNS related pharmacological effects. […] No behavioral or physical signs were observed 24 hours after administration. All rats were retained for 14 days, and throughout this retention period all rats appeared normal.

[5] = Metabolic stability, rat liver microsomes; assay type: in vitro ADME; details: read-out: Metabolic Stability T1/2
Description: The metabolic stability of AF292 was evaluated by monitoring its disappearance while incubated with rat, […], monkey, and human hepatic microsomes. Testosterone, and propranolol were run as assay controls.

[6] = Protein binding, human plasma; assay type: in vitro ADME
Description: Protein binding studies were carried out in human plasma, α1-glycoprotein, human serum albumin (HSA), and Dulbecco's Phosphate Buffered Saline (PBS). AF292 was added to a final concentration of 10 μM. […] (μM) and in human […] (AGP), (see Table 1).

[7] = tested on: adenosine, adrenergic, angiotensin, BZD, bradykinin, CCK, dopamine, opiate, serotonin and other receptors, ion channels, NE transporter; assay: Binding panel of other receptors, channels and transporter (AF292); details: 10 μm
[8] = target: hERG-encoded channel (Homo sapiens, UniProt Q12809); assay: Astemizole (HERG channel) binding assay
Description: (§1) • 1. Astemizole (human ether-a-go-go related gene (HERG) Channel) Binding Assay. […] Isolated Guinea Pig Right Atrium (atrial fibrillation). […] Effects of AF292 (dose 5 mg/kg orally) on cardiac electrophysiological, cardio-haemodynamic in instrumented, awake dogs. Healthy trained and chronically instrumented female Beagle dogs of varying age and ranging in body weight from 9.4 to 12 kg, were used for recording of the cardiovascular parameters: heart rate, diastolic and systolic blood pressure, pressure rate product, LV dp/dt max, LV dp/dt max/pd, LV dp/dt min, cardiac output, stroke volume, systemic vascular resistance and the ECG parameters (PQ-, QRS-, QT-, QTcBazett-(QTcB), QTcFridericia-(QTcF) and QTcVan de Water-(QTcVdW) interval duration and QT-dispersion. During the last 18 hours prior to the experiments, the dogs had no access to food. Water was available ad libitum. At the beginning of each experiment, control values of the various parameters were recorded for at least 30 min. Thereafter, 5 mg/kg of AF292 (n=4) or the corresponding volume of the solvent (n=4) was administered orally by gavage. The various haemodynamic parameters were recorded continuously for 4 hours thereafter.

[9] = tested on: Isolated Guinea Pig Right Atrium; assay: Isolated guinea pig right atrium
Description: as §1

[10] = Cardiac electrophysiology and haemodynamics in awake dogs; assay type: in vivo, Beagle dogs; details: 5 mg/kg orally
Description: as §1

[11] = target: CYP3A4 (Homo sapiens, UniProt P08684); assay: Cytochrome P450 inhibition, CYP3A4; assay type: in vitro ADME; details: up to 10 μM
Description: Cytochrome P450 activity can be an indicator for potential drug-drug interactions. AF292 was evaluated in a microtiter plate assay for P450 inhibition.

Chain of hERG-encoded channel (Q12809 whole entry): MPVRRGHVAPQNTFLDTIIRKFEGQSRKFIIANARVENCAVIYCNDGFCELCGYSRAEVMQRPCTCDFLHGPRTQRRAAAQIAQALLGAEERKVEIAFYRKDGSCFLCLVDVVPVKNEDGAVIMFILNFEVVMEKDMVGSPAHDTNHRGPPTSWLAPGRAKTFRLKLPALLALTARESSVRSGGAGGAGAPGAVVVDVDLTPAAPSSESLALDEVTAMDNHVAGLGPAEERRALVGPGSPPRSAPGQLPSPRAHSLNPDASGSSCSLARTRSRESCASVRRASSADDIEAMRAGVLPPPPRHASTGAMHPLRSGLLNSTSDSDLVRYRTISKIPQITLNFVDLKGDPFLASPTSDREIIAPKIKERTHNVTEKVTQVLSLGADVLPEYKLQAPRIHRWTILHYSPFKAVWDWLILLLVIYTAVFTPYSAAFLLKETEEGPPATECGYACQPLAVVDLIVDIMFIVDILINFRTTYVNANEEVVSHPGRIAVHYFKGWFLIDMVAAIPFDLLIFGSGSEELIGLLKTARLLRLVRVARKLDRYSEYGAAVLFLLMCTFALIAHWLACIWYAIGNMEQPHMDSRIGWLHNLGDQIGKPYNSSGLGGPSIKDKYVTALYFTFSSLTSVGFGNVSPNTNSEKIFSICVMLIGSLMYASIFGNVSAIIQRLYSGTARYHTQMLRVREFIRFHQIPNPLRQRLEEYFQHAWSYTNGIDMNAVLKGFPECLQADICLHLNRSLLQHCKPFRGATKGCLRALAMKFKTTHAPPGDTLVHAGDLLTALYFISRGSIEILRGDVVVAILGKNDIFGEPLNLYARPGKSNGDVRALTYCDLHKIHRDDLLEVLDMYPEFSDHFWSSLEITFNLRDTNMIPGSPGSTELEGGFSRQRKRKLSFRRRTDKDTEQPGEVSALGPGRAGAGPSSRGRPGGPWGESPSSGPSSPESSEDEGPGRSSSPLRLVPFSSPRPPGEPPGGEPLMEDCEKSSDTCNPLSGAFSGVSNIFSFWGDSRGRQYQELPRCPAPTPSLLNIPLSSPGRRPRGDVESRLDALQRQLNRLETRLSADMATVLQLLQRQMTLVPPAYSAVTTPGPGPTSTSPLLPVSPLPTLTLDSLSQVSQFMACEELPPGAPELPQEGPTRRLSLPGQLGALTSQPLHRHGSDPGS
Chain of CYP3A4 (P08684 whole entry): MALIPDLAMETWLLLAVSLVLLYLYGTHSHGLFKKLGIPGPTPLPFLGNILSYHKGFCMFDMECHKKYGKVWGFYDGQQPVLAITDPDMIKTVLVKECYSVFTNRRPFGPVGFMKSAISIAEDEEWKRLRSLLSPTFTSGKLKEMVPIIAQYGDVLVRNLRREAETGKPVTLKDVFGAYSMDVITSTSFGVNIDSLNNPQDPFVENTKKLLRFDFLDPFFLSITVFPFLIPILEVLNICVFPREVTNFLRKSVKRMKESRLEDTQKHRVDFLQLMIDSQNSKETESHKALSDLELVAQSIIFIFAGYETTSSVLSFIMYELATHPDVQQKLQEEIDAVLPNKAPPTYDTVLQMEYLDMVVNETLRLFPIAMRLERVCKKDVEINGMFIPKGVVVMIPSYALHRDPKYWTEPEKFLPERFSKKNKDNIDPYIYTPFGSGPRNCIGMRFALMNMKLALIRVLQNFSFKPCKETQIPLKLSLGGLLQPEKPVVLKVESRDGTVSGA

## CC1=NCC2(CCN(C)CC2)S1 [AF150(S), 2,8-Dimethyl-1-thia-3,8-diaza-spiro[4.5]dec-2-ene]
[1]
  Prevention of NMDA-induced cell death: effective in prevention of cell death
  Neuroprotective potency against 200 μM of NMDA vs MK801: slightly less

## CC[C@@H]1SC2(CCN(C)CC2)NC1=O [AF267B, (S)-2-ethyl-8-methyl-1-thia-4,8-diaza-spiro[4.5]decan-3-one]
[2]; 1 mg/kg s.c. twice daily
  CSF Aβ (4 kDa band): noticeable decrease
  CSF sAPPα band intensity: no significant difference
[2]
  Histologic Aβ deposition, % of the lesioned, untreated group: 12%
[1]
  Prevention of NMDA-induced cell death: effective in prevention of cell death
  Neuroprotective potency against 200 μM of NMDA vs MK801: slightly less
[3]
  Ki: 3.74 ± 0.59 µM
[4]; 100 mg/kg
  IRWIN TEST, duration of signs: duration 3–6 hrs.).
  IRWIN TEST, onset of signs: 0.5 h
[4]; 100 mg/kg p.o.
  IRWIN TEST, signs: 100 mg/kg: abnormalities of carriage, and apathy, decreased corneal reflex, diarrhea, and reduced grooming, increased urination, and salivation, lacrimation & and chromodacryorrhea, reduced locomotor and activity, passivity, decreased respiration, and reduced startle response
[4]; 1 & 10 mg/kg, p.o.
  IRWIN TEST, gross behavior & physiological state: 1 & 10 no effect on gross behavior
[4]; p.o.
  Chromodacryorrhea, dose: Chromodacryorrhea: 100 mg/kg, p.o.
  Convulsion, dose: Convulsion: 50 mg/kg, p.o.
  Gnawing, dose: Gnawing; 50 mg/kg, p.o.
  Hypothermia, dose: Hypothermia: 50 mg/kg, p.o.
  Lacrimation, dose: Lacrimation: 50 mg/kg, p.o.
  Mydriasis, dose: Mydriasis: 25 mg/kg, p.o.
  Salivation, dose: Salivation: 40 mg/kg, p.o.
  Sedation, dose: Sedation: 100 mg/kg, p.o.
[4]; po, first hour
  Dose at which salivation and lacrimation begin: about 40 mg/kg
[5]
  half-life: 1.47 h
[6]
  fraction unbound at 10 μM: 0.75

## CC[C@@H]1SC2(CCNCC2)NC1=O [AF292, (S)-2-Ethyl-1-thia-4,8-diaza-spiro[4.5]decan-3-one]
[3]
  OXO-M/PZ ratio: ~0.36
  Ki: 1.64 µM
[7]
  Binding to panel: no binding at all
[4]; 1, 10, 30, 60, 100 mg/kg, p.o.
  Physical or behavioral signs (Irwin test): No significant physical or behavioral signs
[8]
  [3H]-Astemizole binding inhibition: inactive
[9]
  Contractile force: no significant effect on contractile force
  Contractile rate: tended to slightly reduce the contractile rate
[10]
  Hemodynamic and ECG parameters: no statistically significant and relevant effect
[11]
  Inhibition of CYP3A4: did not induce significant inhibition
[5]
  half-life: 1.53 h
[6]
  fraction unbound at 10 μM: 0.65
